Assay results as given in ChEMBL document CHEMBL1201862, “PubChem BioAssay data set” (2004).
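These data come from cells grown in 96-well plates and exposed to compound for 48 hours at five concentrations. The concentration for 50% growth inhibition is given as GI50.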 Active and inactive are the calls of the source. Cut-off read from the data, not from the text of the source: active = GI50 up to about 1.1 µM and inactive = higher.

Key:
Experiment in all cases: DTP human tumour cell line panel, 48 h
[1] = system: A498
[2] = system: A549
[3] = system: CCRF-CEM
[4] = system: COLO 205
[5] = system: DMS-114
[6] = system: DMS-273
[7] = system: EKVX
[8] = system: HCC 2998
[9] = system: HCT-116
[10] = system: HCT-15
[11] = system: HL-60
[12] = system: HOP-18
[13] = system: HOP-62
[14] = system: HOP-92
[15] = system: HT-29
[16] = system: IGROV-1
[17] = system: K562
[18] = system: KM-20L2
[19] = system: KM12
[20] = system: LOX IMVI
[21] = system: M19-MEL
[22] = system: MCF7
[23] = system: MOLT-4
[24] = system: Malme-3M
[25] = system: NCI-H226
[26] = system: NCI-H23
[27] = system: NCI-H460
[28] = system: NCI-H522
[29] = system: NCI/ADR-RES
[30] = system: OVCAR-3
[31] = system: OVCAR-4
[32] = system: OVCAR-5
[33] = system: OVCAR-8
[34] = system: RPMI-8226
[35] = system: RXF 393
[36] = system: SF-268
[37] = system: SF-295
[38] = system: SF-539
[39] = system: SK-MEL-28
[40] = system: SK-MEL-2
[41] = system: SK-MEL-5
[42] = system: SK-OV-3
[43] = system: SN12C
[44] = system: SNB-19
[45] = system: SNB-75
[46] = system: SNB-78
[47] = system: SW-620
[48] = system: U-251
[49] = system: UACC-257
[50] = system: UACC-62
[51] = system: UO-31
[52] = system: XF498
[53] = system: 786-0
[54] = system: ACHN
[55] = system: BT-549
[56] = system: CAKI-1
[57] = system: DLD-1
[58] = system: DU-145
[59] = system: Hs-578T
[60] = system: M14
[61] = system: MDA-MB-231
[62] = system: MDA-MB-435
[63] = system: MDA-N
[64] = system: PC-3
[65] = system: SR
[66] = system: T47D
[67] = system: TK-10

In the case of ClCc1nnc2n1-c1ccc(Cl)cc1SC2, the GI50 [1] is reported as 4.03 µM (inactive), the GI50 [2] is reported as 5.05 µM (inactive) and the GI50 [3] is reported as 2.19 µM (inactive). The GI50 [4] was 4.06 µM (inactive), the GI50 [5] was 2.8 µM (inactive) and the GI50 [6] was 2.92 µM (inactive). For the same compound, the GI50 [7] was 13.3 µM (inactive), the GI50 [8] was 4.06 µM (inactive) and the GI50 [9] was 3.1 µM (inactive). For the same compound, the GI50 [10] was 4.56 µM, the GI50 [11] was 1.56 µM (inactive) and the GI50 [12] was 2.92 µM (inactive). For the same compound, the GI50 [13] was 6.25 µM (inactive), the GI50 [14] was 2.55 µM (inactive) and the GI50 [15] was 3.65 µM (inactive). For the same compound, the GI50 [16] was 2.94 µM (inactive), the GI50 [17] was 2.9 µM (inactive) and the GI50 [18] was 4.67 µM (inactive). For the same compound, the GI50 [19] was 4.35 µM (inactive), the GI50 [20] was 1.49 µM (inactive) and the GI50 [21] was 3.23 µM (inactive). The GI50 [22] was 4.2 µM (inactive), the GI50 [23] was 1.45 µM (inactive) and the GI50 [24] was 3.88 µM (inactive). The GI50 [25] was 1.94 µM (inactive), the GI50 [26] was 2.35 µM (inactive) and the GI50 [27] was 3.66 µM (inactive). For the same compound, the GI50 [28] was 1.63 µM (inactive), the GI50 [29] was 1.78 µM (inactive) and the GI50 [30] was 2.17 µM (inactive). The GI50 [31] was 3.89 µM (inactive), the GI50 [32] was 12.2 µM (inactive) and the GI50 [33] was 4.02 µM (inactive). For the same compound, the GI50 [34] was 3.3 µM (inactive), the GI50 [35] was 2.23 µM (inactive) and the GI50 [36] was 2.87 µM (inactive). For the same compound, the GI50 [37] was 2.21 µM (inactive), the GI50 [38] was 3.47 µM (inactive) and the GI50 [39] was 4.74 µM (inactive). The GI50 [40] was 2.81 µM (inactive), the GI50 [41] was 2.62 µM (inactive) and the GI50 [42] was 3.56 µM (inactive). For the same compound, the GI50 [43] was 7.26 µM (inactive), the GI50 [44] was 13 µM (inactive) and the GI50 [45] was 3.15 µM (inactive). For the same compound, the GI50 [46] was 5.4 µM (inactive), the GI50 [47] was 4.55 µM (inactive) and the GI50 [48] was 6.59 µM (inactive). For the same compound, the GI50 [49] was 2.16 µM (inactive), the GI50 [50] was 2.69 µM (inactive) and the GI50 [51] was 15.1 µM (inactive). The GI50 [52] was 5.57 µM (inactive).

CCOC(=O)C(N)CSC(=O)NC (stereo not drawn) was tested, and the GI50 [53] was 73.6 µM (inactive), the GI50 [1] was 236 µM (inactive) and the GI50 [2] was 327 µM (inactive). For the same compound, the GI50 [54] was 184 µM (inactive), the GI50 [55] was 121 µM (inactive) and the GI50 [56] was 104 µM (inactive). For the same compound, the GI50 [3] was 49.3 µM (inactive), the GI50 [4] was 78.5 µM (inactive) and the GI50 [57] was 130 µM (inactive). The GI50 [5] was 51.3 µM (inactive), the GI50 [6] was 83.6 µM (inactive) and the GI50 [58] was 268 µM (inactive). The GI50 [7] was 269 µM (inactive), the GI50 [8] was 271 µM (inactive) and the GI50 [9] was > 89.7 µM (inactive). For the same compound, the GI50 [10] was 63 µM, the GI50 [11] was 74 µM (inactive) and the GI50 [12] was 357 µM (inactive). For the same compound, the GI50 [13] was 154 µM (inactive), the GI50 [14] was 98.4 µM (inactive) and the GI50 [15] was 78.7 µM (inactive). For the same compound, the GI50 [59] was 204 µM (inactive), the GI50 [16] was 155 µM (inactive) and the GI50 [17] was 45.3 µM (inactive). For the same compound, the GI50 [18] was 171 µM (inactive), the GI50 [19] was 175 µM (inactive) and the GI50 [20] was 40.4 µM (inactive). The GI50 [60] was 67.9 µM (inactive), the GI50 [21] was 64.6 µM (inactive) and the GI50 [22] was 93.5 µM (inactive). For the same compound, the GI50 [61] was 99.1 µM (inactive), the GI50 [62] was 45 µM (inactive) and the GI50 [63] was 39.8 µM (inactive). For the same compound, the GI50 [23] was 55.1 µM (inactive), the GI50 [24] was 117 µM (inactive) and the GI50 [25] was 247 µM (inactive). The GI50 [26] was 112 µM (inactive), the GI50 [27] was 92 µM (inactive) and the GI50 [28] was 102 µM (inactive). For the same compound, the GI50 [29] was 89.9 µM (inactive), the GI50 [30] was 96.6 µM (inactive) and the GI50 [31] was 219 µM (inactive). For the same compound, the GI50 [32] was 350 µM (inactive), the GI50 [33] was 97.7 µM (inactive) and the GI50 [64] was 132 µM (inactive). For the same compound, the GI50 [34] was 20.1 µM (inactive), the GI50 [35] was 105 µM (inactive) and the GI50 [36] was 115 µM (inactive). The GI50 [37] was 258 µM (inactive), the GI50 [38] was > 83.6 µM (inactive) and the GI50 [39] was 136 µM (inactive). For the same compound, the GI50 [40] was 63.2 µM (inactive), the GI50 [41] was 116 µM (inactive) and the GI50 [42] was 286 µM (inactive). For the same compound, the GI50 [43] was 71.6 µM (inactive), the GI50 [44] was 251 µM (inactive) and the GI50 [45] was 243 µM (inactive). The GI50 [65] was 45.1 µM (inactive), the GI50 [47] was 80.4 µM (inactive) and the GI50 [66] was 133 µM (inactive). For the same compound, the GI50 [67] was 247 µM (inactive), the GI50 [48] was 121 µM (inactive) and the GI50 [49] was 208 µM (inactive). The GI50 [50] was 81.8 µM (inactive), the GI50 [51] was 259 µM (inactive) and the GI50 [52] was 104 µM (inactive).
